In this assay the target is T1, Recombinant human renin (Homo sapiens, UniProt P00797).
T1 construct: isolate the active form (residues 67-406); made in house; host or cells: FreeStyle 293-F cells (transient expression of pcDNA3.1(+)/hREN)
T1 sequence (P00797 67-406): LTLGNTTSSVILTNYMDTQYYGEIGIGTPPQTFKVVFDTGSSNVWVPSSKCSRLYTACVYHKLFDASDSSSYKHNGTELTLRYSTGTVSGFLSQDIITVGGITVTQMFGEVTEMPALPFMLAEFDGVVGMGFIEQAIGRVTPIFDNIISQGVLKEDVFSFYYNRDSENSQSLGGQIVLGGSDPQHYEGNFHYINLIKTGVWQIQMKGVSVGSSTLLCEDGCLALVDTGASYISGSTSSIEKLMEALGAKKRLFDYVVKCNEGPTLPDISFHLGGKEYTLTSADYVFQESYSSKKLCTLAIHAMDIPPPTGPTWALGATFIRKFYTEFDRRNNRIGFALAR
The experiment in a line: In vitro enzymatic activity assay of renin inhibitors (fluorogenic peptide substrate). It is filed as biochemical. Particulars: read-out: IC50 of Exemplified Compounds Against Renin. An outline of the steps:
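Enzyme: recombinant human renin, 3 nM final, 10 min compound pre-incubation at 37 °C; buffer 50 mM Hepes pH 7.4 with 0.1 mg/mL BSA or extra 2% BSA; 5% DMSO.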

For the compound `CN1CCOc2cc(-c3ccc(C[C@@H](N)CC(=O)N4CCC[C@@H](c5nc6ccccc6n5CCC(N)=O)C4)cc3)ccc21` [Compound 447, 3-(2-((R)-1-((R)-3-amino-4-(4-(4-methyl-3,4-dihydro-2H-benzo[b][1,4]oxazin-7-yl)phenyl)butanoyl)piperidin-3-yl)-1H-benzo[d]imidazol-1-yl)propanamide], the IC50 fell in the range of 100 to 1000 nM.

`COCCCn1c([C@@H]2CCCN(C(=O)C[C@H](N)Cc3ccc(-c4ccc5occc5c4)cc3)C2)nc2c(C)cccc21` [Compound 494, (R)-3-amino-4-(4-(benzofuran-5-yl)phenyl)-1-((R)-3-(1-(3-methoxypropyl)-4-methyl-1H-benzo[d]imidazol-2-yl)piperidin-1-yl)butan-1-one]: the IC50 is < 100 nM.

As to `COCCCn1c([C@@H]2CCCN(C(=O)[C@H](Cc3ccccc3)C(N)Cc3ccc(Cl)cc3)C2)nc2ccccc21` (stereo partly drawn) [Compound 240, (R)-3-amino-2-benzyl-4-(4-chlorophenyl)-1-((R)-3-(1-(3-methoxypropyl)-1H-benzo[d]imidazol-2-yl)piperidin-1-yl)butan-1-one], the IC50 was > 1000 nM.

Turning to `O=C(C1CCCNC1)N1CCCC(c2nc3ccccc3[nH]2)C1` (centres unmarked) [Compound 52, (3-(1H-benzo[d]imidazol-2-yl)piperidin-1-yl)(piperidin-3-yl)methanone], the IC50 is > 1000 nM.

On to `N[C@@H](CCl)C(=O)N1CCCC(c2nc3ccccc3[nH]2)C1` (stereo partly drawn) [Compound 60, (2R)-1-(3-(1H-benzo[d]imidazol-2-yl)piperidin-1-yl)-2-amino-3-chloropropan-1-one], for which the IC50 is > 1000 nM.

Take `COCCCn1c([C@@H]2CCCN(C(=O)[C@@H]3CN(S(=O)(=O)c4cccc(-c5ccnc(C)n5)c4)C[C@H]3N)C2)nc2ccccc21` [Compound 430, ((3R,4S)-4-amino-1-(3-(2-methylpyrimidin-4-yl)phenylsulfonyl)pyrrolidin-3-yl)((R)-3-(1-(3-methoxypropyl)-1H-benzo[d]imidazol-2-yl)piperidin-1-yl)methanone]: the IC50 was in the range of 100 to 1000 nM.

As to `COCCCn1c([C@@H]2CCCN(C(=O)[C@@H]3CN(S(=O)(=O)c4ccccc4)C[C@H]3N)C2)nc2ccccc21` [Compound 384, ((3R,4S)-4-amino-1-(phenylsulfonyl)pyrrolidin-3-yl)((R)-3-(1-(3-methoxypropyl)-1H-benzo[d]imidazol-2-yl)piperidin-1-yl)methanone], the IC50 is > 1000 nM.

As to `COCCCn1c([C@@H]2CCCN(C(=O)[C@@H]3CN(S(=O)(=O)c4c(Cl)cc(Cl)cc4Cl)C[C@H]3N)C2)nc2ccccc21` [Compound 340, ((3R,4S)-4-amino-1-(2,4,6-trichlorophenylsulfonyl)pyrrolidin-3-yl)((R)-3-(1(3-methoxypropyl)-1H-benzo[d]imidazol-2-yl)piperidin-1-yl)methanone], the IC50 was in the range of 100 to 1000 nM.

With `COCCCn1c([C@@H]2CCCN(C(=O)C[C@H](N)Cc3ccc(-c4c[nH]c(=O)[nH]c4=O)cc3)C2)nc2ccccc21` [Compound 169, 5-(4-((R)-2-amino-4-((R)-3-(1-(3-methoxypropyl)-1H-benzo[d]imidazol-2-yl)piperidin-1-yl)-4-oxobutyl)phenyl)pyrimidine-2,4(1H,3H)-dione], the IC50 is < 100 nM.

Turning to `COCCCn1c([C@@H]2CCCN(C(=O)C[C@H](N)CNC(=O)c3cccc(Oc4ccccc4)c3)C2)nc2ccccc21` [Compound 270, N-((S)-2-amino-4-((R)-3-(1-(3-methoxypropyl)-1H-benzo[d]imidazol-2-yl)piperidin-1-yl)-4-oxobutyl)-3-phenoxybenzamide], the IC50 was in the range of 100 to 1000 nM.

On to `COCCCn1c([C@@H]2CCCN(C(=O)C[C@H](N)CNC(=O)c3ccc(Oc4ccccc4)cc3)C2)nc2ccccc21` [Compound 278, N-((S)-2-amino-4-((R)-3-(1-(3-methoxypropyl)-1H-benzo[d]imidazol-2-yl)piperidin-1-yl)-4-oxobutyl)-4-phenoxybenzamide], for which the IC50 lay within 100 to 1000 nM.

On to `O=C(C1CCCN1)N1CCCC(c2nc3ccccc3[nH]2)C1` (centres unmarked) [Compound 45, (3-(1H-benzo[d]imidazol-2-yl)piperidin-1-yl)(pyrrolidin-2-yl)methanone], for which the IC50 was > 1000 nM.

Turning to `CCOC(=O)CCNC(=O)N1CCCC(c2nc3ccccc3[nH]2)C1` (centres unmarked) [Compound 14, ethyl 3-(3-(1H-benzo[d]imidazol-2-yl)piperidine-1-carboxamido)propanoate], the IC50 was > 1000 nM.

For `COCCCn1c([C@@H]2CCCN(C(=O)[C@@H]3CN(S(=O)(=O)c4cccc(NC(C)=O)c4)C[C@H]3N)C2)nc2ccccc21` [Compound 429, N-(3-((3S,4R)-3-amino-4-((R)-3-(1-(3-methoxypropyl)-1H-benzo[d]imidazol-2-yl)piperidine-1-carbonyl)pyrrolidin-1-ylsulfonyl)phenyl)acetamide], the IC50 is < 100 nM.

Turning to `COCCCn1c([C@@H]2CCCN(C(=O)C[C@H](N)CNC(=O)Nc3ccccc3-c3ccccc3)C2)nc2ccccc21` [Compound 291, 1-((S)-2-amino-4-((R)-3-(1-(3-methoxypropyl)-1H-benzo[d]imidazol-2-yl)piperidin-1-yl)-4-oxobutyl)-3-(biphenyl-2-yl)urea], the IC50 was in the range of 100 to 1000 nM.

For `COCCCn1c([C@@H]2CCCN(C(=O)C[C@H](N)CNC(=O)NCCc3cc(OC)ccc3OC)C2)nc2ccccc21` [Compound 322, 1-((S)-2-amino-4-((R)-3-(1-(3-methoxypropyl)-1H-benzo[d]imidazol-2-yl)piperidin-1-yl)-4-oxobutyl)-3-(2,5-dimethoxyphenethyl)urea], the IC50 lay in the range of 100 to 1000 nM.

`COCCCn1c([C@@H]2CCCN(C(=O)C[C@H](N)Cc3ccc(-c4ccccc4)cc3)C2)nc2c(Cl)cccc21` [Compound 118, (R)-3-amino-4-(biphenyl-4-yl)-1-((R)-3-(4-chloro-1-(3-methoxypropyl)-1H-benzo[d]imidazol-2-yl)piperidin-1-yl)butan-1-one]: the IC50 was < 100 nM.

On to `COCCCn1c([C@@H]2CCCN(C(=O)C[C@H](N)CNC(=O)c3ccc(C(=O)OC)cc3)C2)nc2ccccc21` [Compound 314, methyl 4-((S)-2-amino-4-((R)-3-(1-(3-methoxypropyl)-1H-benzo[d]imidazol-2-yl)piperidin-1-yl)-4-oxobutylcarbamoyl)benzoate], for which the IC50 is 100 to 1000 nM.

On to `COCCCn1c([C@@H]2CCCN(C(=O)C[C@H](N)Cc3ccc(-c4ccc(NC(=O)NC5CC5)cc4)cc3)C2)nc2ccccc21` [Compound 171, 1-(4′-((R)-2-Amino-4-((R)-3-(1-(3-methoxypropyl)-1H-benzo[d]imidazol-2-yl)piperidin-1-yl)-4-oxobutyl)biphenyl-4-yl)-3-cyclopropylurea], for which the IC50 is < 100 nM.

Take `COCCCn1c([C@@H]2CCCN(C(=O)C[C@H](N)Cc3ccc(-c4ccncc4Cl)cc3)C2)nc2ccccc21` [Compound 131, (R)-3-amino-4-(4-(3-chloropyridin-4-yl)phenyl)-1-((R)-3-(1-(3-methoxypropyl)-1H-benzo[d]imidazol-2-yl)piperidin-1-yl)butan-1-one]: the IC50 is < 100 nM.

As for `CC(=O)NCCn1c([C@@H]2CCCN(C(=O)C[C@H](N)Cc3ccc(-c4ccc(N5CCNC5=O)cc4)cc3)C2)nc2ccccc21` [Compound 462, N-(2-(2-((R)-1-((R)-3-amino-4-(4′-(2-oxoimidazolidin-l-yl)biphenyl-4-yl)butanoyl)piperidin-3-yl)-1H-benzo[d]imidazol-1-yl)ethyl)acetamide], the IC50 was 100 to 1000 nM.

As to `COCCCn1c([C@@H]2CCCN(C(=O)C[C@H](N)Cc3ccc(-n4c(=O)n(CCOC)c5ccccc54)cc3)C2)nc2ccccc21` [Compound 214, 1-(4-((R)-2-amino-4-((R)-3-(1-(3-methoxypropyl)-1H-benzo[d]imidazol-2-yl)piperidin-1-yl)-4-oxobutyl)phenyl)-3-(2-methoxyethyl)-1H-benzo[d]imidazol-2(3H)-one], the IC50 was < 100 nM.

In the case of `COCCCn1c([C@@H]2CCCN(C(=O)[C@@H]3CN(S(=O)(=O)c4c(Cl)cccc4Cl)C[C@H]3N)C2)nc2ccccc21` [Compound 347, ((3R,4S)-4-amino-1-(2,6-dichlorophenylsulfonyl)pyrrolidin-3-yl)((R)-3-(1-(3-methoxypropyl)-1H-benzo[d]imidazol-2-yl)piperidin-1-yl)methanone], the IC50 is 100 to 1000 nM.

Regarding `COCCCn1c([C@@H]2CCCN(C(=O)[C@@H]3CN(C(=O)c4ccc(-c5ccccc5)o4)C[C@H]3N)C2)nc2ccccc21` [Compound 352, ((3R,4S)-4-amino-1-(5-phenylfuran-2-carbonyl)pyrrolidin-3-yl)((R)-3-(1-(3-methoxypropyl)-1H-benzo[d]imidazol-2-yl)piperidin-1-yl)methanone], the IC50 lay within 100 to 1000 nM.

As for `COCCCn1c([C@@H]2CCCN(C(=O)[C@@H]3CN(C(=O)c4c(Cl)cccc4Cl)C[C@H]3N)C2)nc2ccccc21` [Compound 414, ((3R,4S)-4-amino-1-(2,6-dichlorobenzoyl)pyrrolidin-3-yl)((R)-3-(1-(3-methoxypropyl)-1H-benzo[d]imidazol-2-yl)piperidin-1-yl)methanone], the IC50 is > 1000 nM.

Turning to `CNC(=O)CCn1c([C@@H]2CCCN(C(=O)C[C@H](N)Cc3ccc(-c4ccc5c(c4)CCO5)cc3)C2)nc2c(C)cccc21` [Compound 501, 3-(2-((R)-1-((R)-3-amino-4-(4-(2,3-dihydrobenzofuran-5-yl)phenyl)butanoyl)piperidin-3-yl)-4-methyl-1H-benzo[d]imidazol-1-yl)-N-methylpropanamide], the IC50 lay in the range of 100 to 1000 nM.

Broadly, the IC50 is the concentration that inhibits the measured activity by half.

(Values after patent US8138168B1 (Takeda Pharmaceutical Company Limited, priority 2007, dated 2012).)
